Results taken from the NIST ThermoML archive (doi:10.1021/je301283e).
Numbers after ± are expanded uncertainties.

Conditions: Liquid, Vibrating tube method

CCCCCCC [heptane]
mass density [kg/m3]
Conditions | 313.15 K | 333.15 K | 353.15 K | 373.15 K | 393.15 K
340 kPa | 667.1 ± 1.4 | 649.7 ± 1.4 | 631.8 ± 1.4 | 613.1 ± 1.4 | 593.4 ± 1.4
690 kPa | 667.5 ± 1.4 | 650.2 ± 1.4 | 632.3 ± 1.4 | 613.7 ± 1.4 | 594.1 ± 1.4
1030 kPa | 667.8 ± 1.4 | 650.6 ± 1.4 | 632.8 ± 1.4 | 614.3 ± 1.4 | 594.9 ± 1.4
1380 kPa | 668.2 ± 1.4 | 651 ± 1.4 | 633.3 ± 1.4 | 614.9 ± 1.4 | 595.6 ± 1.4
1720 kPa | 668.64 ± 1.4 | 651.4 ± 1.4 | 633.9 ± 1.4 | 615.5 ± 1.4 | 596.3 ± 1.4
2070 kPa | 669 ± 1.4 | 651.9 ± 1.4 | 634.4 ± 1.4 | 616.1 ± 1.4 | 597 ± 1.4
2410 kPa | 669.3 ± 1.4 | 652.3 ± 1.4 | 634.9 ± 1.4 | 616.7 ± 1.4 | 597.8 ± 1.4
2760 kPa | 669.8 ± 1.4 | 652.7 ± 1.4 | 635.3 ± 1.4 | 617.3 ± 1.4 | 598.5 ± 1.4
3100 kPa | 670.1 ± 1.4 | 653.2 ± 1.4 | 635.8 ± 1.4 | 618.2 ± 1.4 | 599.2 ± 1.4
3450 kPa | 670.4 ± 1.4 | 653.6 ± 1.4 | 636.3 ± 1.4 | 618.5 ± 1.4 | 599.9 ± 1.4
3800 kPa | 670.8 ± 1.4 | 654 ± 1.4 | 636.8 ± 1.4 | 619 ± 1.4 | 600.5 ± 1.4
4140 kPa | 671.2 ± 1.4 | 654.4 ± 1.4 | 637.3 ± 1.4 | 619.6 ± 1.4 | 601.2 ± 1.4
4480 kPa | 671.6 ± 1.4 | 654.8 ± 1.4 | 637.7 ± 1.4 | 620.2 ± 1.4 | 601.9 ± 1.4
4830 kPa | 671.9 ± 1.4 | 655.2 ± 1.4 | 638.2 ± 1.4 | 620.7 ± 1.4 | 602.5 ± 1.4
5170 kPa | 672.2 ± 1.4 | 655.6 ± 1.4 | 638.7 ± 1.4 | 621.2 ± 1.4 | 603.2 ± 1.4
5510 kPa | 672.6 ± 1.4 | 656 ± 1.4 | 639.2 ± 1.4 | 621.8 ± 1.4 | 603.8 ± 1.4
5860 kPa | 672.9 ± 1.4 | 656.4 ± 1.4 | 639.6 ± 1.4 | 622.3 ± 1.4 | 604.4 ± 1.4
6200 kPa | 673.3 ± 1.4 | 656.8 ± 1.4 | 640.1 ± 1.4 | 622.9 ± 1.4 | 605.1 ± 1.4
6550 kPa | 673.6 ± 1.4 | 657.2 ± 1.4 | 640.6 ± 1.4 | 623.4 ± 1.4 | 605.7 ± 1.4
6890 kPa | 674 ± 2 | 657.6 ± 1.4 | 641 ± 1.4 | 623.9 ± 1.4 | 606.3 ± 1.5
7240 kPa | 674.3 ± 1.4 | 658 ± 1.4 | 641.5 ± 1.4 | 624.4 ± 1.4 | 606.9 ± 1.5
7580 kPa | – | 658.4 ± 1.4 | 641.9 ± 1.4 | 625 ± 1.5 | 607.5 ± 1.5
7930 kPa | – | 658.8 ± 1.4 | 642.3 ± 1.4 | 625.5 ± 1.5 | 608.1 ± 1.5
8270 kPa | – | 659.2 ± 1.4 | 642.8 ± 1.4 | 626 ± 1.5 | 608.7 ± 1.5
8620 kPa | – | – | 643.2 ± 1.5 | 626.5 ± 1.5 | 609.3 ± 1.5
8960 kPa | – | – | 643.9 ± 1.5 | 627 ± 1.5 | 609.9 ± 1.5
9310 kPa | – | – | 644.1 ± 1.5 | 627.5 ± 1.5 | 610.8 ± 1.5
9650 kPa | – | – | 644.5 ± 1.5 | 628 ± 1.5 | 611.1 ± 1.5

CCCCCCCCCCCCCCCC [hexadecane]
mass density [kg/m3]
Conditions | 313.15 K | 333.15 K | 353.15 K | 373.15 K | 393.15 K
340 kPa | 759.52 ± 1.4 | 746.8 ± 1.4 | 736.2 ± 1.4 | 723.1 ± 1.4 | 710 ± 1.4
690 kPa | 759.83 ± 1.4 | 747.1 ± 1.4 | 736.4 ± 1.4 | 723.3 ± 1.4 | 710.3 ± 1.4
1030 kPa | 760.08 ± 1.4 | 747.4 ± 1.4 | 736.6 ± 1.4 | 723.6 ± 1.4 | 710.6 ± 1.4
1380 kPa | 760.33 ± 1.4 | 747.7 ± 1.4 | 736.9 ± 1.4 | 723.8 ± 1.4 | 710.9 ± 1.4
1720 kPa | 760.65 ± 1.4 | 748 ± 1.4 | 737.1 ± 1.4 | 724 ± 1.4 | 711.1 ± 1.4
2070 kPa | 760.88 ± 1.4 | 748.2 ± 1.4 | 737.4 ± 1.4 | 724.3 ± 1.4 | 711.4 ± 1.4
2410 kPa | 761.08 ± 1.4 | 748.5 ± 1.4 | 737.7 ± 1.4 | 724.6 ± 1.4 | 711.7 ± 1.4
2760 kPa | 761.33 ± 1.4 | 748.7 ± 1.4 | 738 ± 1.4 | 724.9 ± 1.4 | 712 ± 1.4
3100 kPa | 761.65 ± 1.4 | 749 ± 1.4 | 738.3 ± 1.4 | 725.1 ± 1.4 | 712.2 ± 1.4
3450 kPa | 761.83 ± 1.4 | 749.2 ± 1.4 | 738.7 ± 1.4 | 725.4 ± 1.4 | 712.3 ± 1.4
3800 kPa | 762.08 ± 1.4 | 749.5 ± 1.4 | 739.1 ± 1.4 | 725.6 ± 1.4 | 712.5 ± 1.4
4140 kPa | 762.33 ± 1.4 | 749.8 ± 1.4 | 739.3 ± 1.4 | 725.9 ± 1.4 | 712.8 ± 1.4
4480 kPa | 762.49 ± 1.4 | 750 ± 1.4 | 739.5 ± 1.4 | 726.1 ± 1.4 | 713 ± 1.4
4830 kPa | 762.83 ± 1.4 | 750.2 ± 1.4 | 739.8 ± 1.4 | 726.4 ± 1.4 | 713.3 ± 1.4
5170 kPa | 763.08 ± 1.4 | 750.5 ± 1.4 | 740 ± 1.4 | 726.7 ± 1.4 | 713.5 ± 1.4
5510 kPa | 763.33 ± 1.4 | 750.7 ± 1.4 | 740.2 ± 1.4 | 726.9 ± 1.4 | 713.8 ± 1.4
5860 kPa | 763.58 ± 1.4 | 751 ± 1.4 | 740.4 ± 1.4 | 727.2 ± 1.4 | 714 ± 1.4
6200 kPa | 763.83 ± 1.4 | 751.2 ± 1.4 | 740.5 ± 1.4 | 727.5 ± 1.4 | 714.3 ± 1.4
6550 kPa | 764.08 ± 1.4 | 751.4 ± 1.4 | 740.7 ± 1.4 | 727.8 ± 1.4 | 714.6 ± 1.4
6890 kPa | 764.33 ± 1.4 | 751.6 ± 1.4 | 741 ± 1.4 | 728.1 ± 1.4 | 714.9 ± 1.4
7240 kPa | 764.65 ± 1.4 | 752 ± 1.4 | 741.2 ± 1.4 | 728.4 ± 1.4 | 715.1 ± 1.4
7580 kPa | 764.83 ± 1.4 | 752.4 ± 1.4 | 741.5 ± 1.4 | 728.5 ± 1.4 | 715.3 ± 1.4
7930 kPa | 765.08 ± 1.4 | 752.6 ± 1.4 | 741.7 ± 1.4 | 728.9 ± 1.4 | 715.5 ± 1.4
8270 kPa | 765.33 ± 1.4 | 752.8 ± 1.4 | 742 ± 1.4 | 729.4 ± 1.4 | 715.8 ± 1.4
8620 kPa | 765.58 ± 1.4 | 753 ± 1.4 | 742.2 ± 1.4 | 729.9 ± 1.4 | 716 ± 1.4
8960 kPa | 765.74 ± 1.4 | 753.2 ± 1.4 | 742.5 ± 1.4 | 730.2 ± 1.4 | 716.3 ± 1.4
9310 kPa | 765.99 ± 1.4 | 753.5 ± 1.4 | 742.7 ± 1.4 | 730.6 ± 1.4 | 716.6 ± 1.4
9650 kPa | 766.24 ± 1.4 | 753.8 ± 1.4 | 742.9 ± 1.4 | 730.8 ± 1.4 | 716.8 ± 1.4
10000 kPa | 766.49 ± 1.4 | 754 ± 1.4 | 743.1 ± 1.4 | 731 ± 1.4 | 717.1 ± 1.4
10340 kPa | 766.74 ± 1.4 | 754.3 ± 1.4 | 743.5 ± 1.4 | 731.4 ± 1.4 | 717.4 ± 1.4
10690 kPa | 766.98 ± 1.4 | 754.5 ± 1.4 | 743.9 ± 1.4 | 731.6 ± 1.4 | 717.6 ± 1.4
11030 kPa | 767.22 ± 1.4 | 754.8 ± 1.4 | 744.1 ± 1.4 | 731.9 ± 1.4 | 717.9 ± 1.4
11380 kPa | 767.48 ± 1.4 | 755 ± 1.4 | 744.3 ± 1.4 | 732.1 ± 1.4 | 718.1 ± 1.4
